In patent US11242354B2, “4-sulfur substituted podophyllotoxin derivative and preparation method therefor and use thereof” (priority 2017, dated 2022):
Read-outs that look alike come from different tables or passages of the source.

Tests used:
HepG2 = experiment: MTT test for inhibition of tumor cells, HepG2; format: cell-based; settings: 48 h
Experimental: (§1) HepG2, HeLa cell lines and human normal liver cells HL-7702 in a logarithmic growth period were centrifuged at 1000 rpm for 5 min, and the supernatant was discarded, the cells were suspended with a suitable amount of culture medium to adjust the cell concentration to 3.5×10^4/well, the cells were seeded in 96-well plates, and the following experimental groups were set:
(§2) 100 μl of DMSO was added to each well, followed by shaking on a shaker for 30 min at 37° C., the absorbance (OD) was measured at 492 nm, and the MTT ratio was calculated as the OD value of drug group/OD value of negative control group.

HeLa = experiment: MTT test for inhibition of tumor cells, HeLa; format: cell-based; settings: 48 h
Experimental: as §1, §2

[1] = tested on: human normal hepatocytes HL-7702; experiment: MTT test on human normal hepatocytes HL-7702; settings: read-out: IC50 HL-7702
Experimental: as §1, §2

[2] = tested on: human lung cancer cell A549; experiment: Activity on tumor cell A549; format: cell-based; settings: vs etoposide
breast cancer cell MCF7 = experiment: Activity on tumor cell MCF7; format: cell-based, human; settings: for antitumor activity on MCF7 compared with etoposide: vs etoposide
[3] = tested on: human normal hepatocytes HL-7702
Experimental: as §1, §2

[4] = tested on: human cervical immortalized cells H8; experiment: Toxicity on normal cell line H8; format: cell-based
[5] = tested on: human embryonic lung cells MRC-5; experiment: Toxicity on normal cell line MRC-5; format: cell-based; settings: MRC5
[6] = tested on: human mammary epithelial cells HMEC; experiment: Toxicity on normal cell line HMEC; format: cell-based
[7] = human normal hepatocytes HL-7702, MTT, 48 h

Row | Molecule | IC50 (HepG2) [µM] | IC50 (HeLa) [µM] | IC50 [1, 7] [µM] | also measured
1 | 4β-S-(3-phenyl-1,3,4-thiadiazol-2(3H)thione potassium salt-5)-4demethylepipodophyllotoxin [Compound 26] | 5.7 ± 0.33 | 48.49 ± 0.38 |  | 
2 | 4β-S-(3-phenyl-1,3,4-thiadiazol-2(3H)thione potassium salt-5)-podophyllotoxin [Compound 25] | 2.2 ± 0.28 | 31.9 ± 0.42 |  | 
3 | 4β-S-(5-phenylbenzoxazol-2)-4demethylepipodophyllotoxin [Compound 12] | 10.2 ± 0.46 | > 100 | 56.8 ± 1.32 | 
4 | 4β-S-(5-phenylbenzoxazol-2)-podophyllotoxin [Compound 11] | 5.25 ± 0.13 | > 100 | 70.7 ± 1.65 | 
5 | 4β-S-(6-chlorobenzoxazol-2)-4demethylepipodophyllotoxin [Compound 16] | 22.3 ± 1.46 | 32.3 ± 1.87 | 68.3 ± 4.5 | 
6 | 4β-S-(6-chlorobenzoxazol-2)-podophyllotoxin [Compound 15] | 5.23 ± 0.35 | 7.23 ± 0.44 | 43.3 ± 3.5 | 
7 | COc1cc(C2c3cc4c(cc3C(Sc3cc(C(F)(F)F)ccn3)C3COC(=O)C23)OCO4)cc(OC)c1OC (stereo not drawn) [Compound 1, 4-β-S-(4-trifluoromethylpyridin-2)-podophyllotoxin] | 2.04 ± 0.3 | 1.86 ± 0.2 | 57 ± 1.1 | 
8 | COc1cc(C2c3cc4c(cc3C(Sc3cc(C(F)(F)F)ccn3)C3COC(=O)C23)OCO4)cc(OC)c1O (stereo not drawn) [Compound 2, 4-β-S-(4-trifluoromethylpyridin-2)-4demethylepipodophyllotoxin] | 4.5 ± 0.45 | 4.58 ± 0.13 | 42.3 ± 1.52 | 
9 | COc1cc(C2c3cc4c(cc3C(Sc3nccc(C(F)(F)F)n3)C3COC(=O)C23)OCO4)cc(OC)c1OC (stereo not drawn) [Compound 3, 4-β-S-(4-trifluoromethylpyrimidin-2)-podophyllotoxin] | 5.05 ± 0.78 | 10.1 ± 0.22 | 69.8 ± 1.23 | 
10 | COc1cc(C2c3cc4c(cc3C(Sc3nccc(C(F)(F)F)n3)C3COC(=O)C23)OCO4)cc(OC)c1O (stereo not drawn) [Compound 4, 4-β-S-(4-trifluoromethylpyrimidin-2)-4demethylepipodophyllotoxin] | 7.37 ± 0.32 | 39.36 ± 0.35 | 54.9 ± 0.98 | 
11 | COc1cc(C2c3cc4c(cc3C(Sc3ccc(F)cc3)C3COC(=O)C23)OCO4)cc(OC)c1OC (stereo not drawn) [Compound 5, 4β-S-(4-fluorobenzene-1)-podophyllotoxin] | 2.28 ± 0.1 | 9.5 ± 0.43 | 44.5 ± 1 | 
12 | COc1cc(C2c3cc4c(cc3C(Sc3nc5cc(F)ccc5s3)C3COC(=O)C23)OCO4)cc(OC)c1OC (stereo not drawn) [Compound 7, 4β-S-(5-fluorobenzothiazol-2)-podophyllotoxin] | 1 ± 0.06 | 1.47 ± 0.32 | 97 ± 2.1 | 
13 | COc1cc([C@@H]2c3cc4c(cc3[C@@H](Sc3nc5cc(F)ccc5s3)[C@H]3COC(=O)[C@H]23)OCO4)cc(OC)c1O [Compound 8, 4β-S-(5-fluorobenzothiazol-2)-4demethylepipodophyllotoxin] |  |  |  | antitumor activity on A549 compared with etoposide [2]: significantly improved; antitumor activity on MCF7 compared with etoposide (breast cancer cell MCF7): significantly improved; toxicity on HL-7702 cell line compared with control compounds [3]: significantly lower
14 | COc1cc(C2c3cc4c(cc3C(Sc3nc5cc(F)ccc5o3)C3COC(=O)C23)OCO4)cc(OC)c1OC (stereo not drawn) [Compound 9, 4β-S-(5-fluorobenzoxazol-2)-podophyllotoxin] | 0.89 ± 0.07 |  | > 1000 | 
15 | COc1cc([C@@H]2c3cc4c(cc3[C@@H](Sc3nc5cc(F)ccc5o3)[C@H]3COC(=O)[C@H]23)OCO4)cc(OC)c1O [Compound 10, 4β-S -(5-fluorobenzoxazol-2)-4demethylepipodophyllotoxin] |  |  |  | antitumor activity on A549 compared with etoposide [2]: significantly improved; antitumor activity on MCF7 compared with etoposide (breast cancer cell MCF7): significantly improved; toxicity on HL-7702 cell line compared with control compounds [3]: significantly lower
16 | COc1cc(C2c3cc4c(cc3C(Sc3nc5cc(C)ccc5o3)C3COC(=O)C23)OCO4)cc(OC)c1OC (stereo not drawn) [Compound 13, 4β-S-(5-methylbenzoxazol-2)-podophyllotoxin] | 7.31 ± 0.4 | 9.31 ± 0.6 | 60.1 ± 1.6 | 
17 | COc1cc(C2c3cc4c(cc3C(Sc3nc5cc(C)ccc5o3)C3COC(=O)C23)OCO4)cc(OC)c1O (stereo not drawn) [Compound 14, 4β-S-(5-methylbenzoxazol-2)-4demethylepipodophyllotoxin] | 7.94 ± 0.21 | 11.9 ± 0.99 | 78.7 ± 2.5 | 
18 | COc1cc(C2c3cc4c(cc3C(Sc3nc5cc(OC(F)F)ccc5[nH]3)C3COC(=O)C23)OCO4)cc(OC)c1OC (stereo not drawn) [Compound 17, 4β-S-(5-difluoromethoxybenzimidazol-2)-podophyllotoxin] | 0.92 ± 0.05 | 1.15 ± 0.16 | 8.15 ± 0.87 | 
19 | COc1cc(C2c3cc4c(cc3C(Sc3nc5cc(OC(F)F)ccc5[nH]3)C3COC(=O)C23)OCO4)cc(OC)c1O (stereo not drawn) [Compound 18, 4β-S-(5-difluoromethoxybenzimidazol-2)-4demethylepipodophyllotoxin] | 2.09 ± 0.17 | 7.6 ± 0.51 | 11.3 ± 1.87 | 
20 | COc1cc(C2c3cc4c(cc3C(Sc3ccc5ccccc5c3)C3COC(=O)C23)OCO4)cc(OC)c1OC (stereo not drawn) [Compound 19, 4β-S-(naphthalen-2)-podophyllotoxin] | 3.06 ± 0.11 | 3.91 ± 0.42 | 90.9 ± 3.49 | 
21 | COc1cc(C2c3cc4c(cc3C(Sc3nc5ncccc5[nH]3)C3COC(=O)C23)OCO4)cc(OC)c1OC (stereo not drawn) [Compound 21, 4β-S-(1H-imidazo [4,5-B]pyridin-2)-podophyllotoxin] | 4.23 ± 0.36 | 64.23 ± 0.45 | 56.6 ± 2.34 | 
22 | COc1cc(C2c3cc4c(cc3C(Sc3nnnn3-c3ccccc3)C3COC(=O)C23)OCO4)cc(OC)c1OC (stereo not drawn) [Compound 23, 4β-S-(1-phenyltetrazol-5)-podophyllotoxin] | 6.17 ± 0.27 | 15.8 ± 0.56 | 87.1 ± 4.2 | 
23 | COc1cc([C@@H]2c3cc4c(cc3[C@@H](Sc3nc(-c5ccncc5)cs3)[C@H]3COC(=O)[C@H]23)OCO4)cc(OC)c1OC [Compound 27, 4β-S-(4-(4-pyridyl)thiazol-2)-podophyllotoxin] | 0.89 ± 0.19 | 1.95 ± 0.36 | 71.4 ± 2.71 | 
24 | COc1cc([C@@H]2c3cc4c(cc3[C@@H](Sc3nc(-c5ccncc5)cs3)[C@H]3COC(=O)[C@H]23)OCO4)cc(OC)c1O [Compound 28, 4β-S-(4-(4-pyridyl)thiazol-2)-4demethylepipodophyllotoxin] | 29.2 ± 1.34 | 24.1 ± 1.29 | 60.1 ± 2.88 | 
25 | COc1cc([C@@H]2c3cc4c(cc3[C@@H](O[C@@H]3O[C@@H]5CO[C@@H](C)O[C@H]5[C@H](O)[C@H]3O)[C@H]3COC(=O)[C@H]23)OCO4)cc(OC)c1O [Etoposide, etoposide, reference compound] |  |  |  | IC50 (HepG2; Homo sapiens): 20.7 ± 1.7 µM; IC50 (HeLa; Homo sapiens): 25.4 ± 2.9 µM; IC50 [4]: 80.1 ± 1.35 µM; IC50 [5]: 30.3 ± 1.21 µM; IC50 (breast cancer cell MCF7; Homo sapiens, tumor cell line MCF7): 56.8 ± 1.22 µM; IC50 [6]: 23.2 ± 1.34 µM; IC50 ([1]; Homo sapiens, L02, 48 h): 28.8 ± 3.4 µM
26 | COc1cc([C@@H]2c3cc4c(cc3[C@H](O)[C@H]3COC(=O)[C@H]23)OCO4)cc(OC)c1OC [Podophyllotoxin, podophyllotoxin] |  |  |  | IC50 (HepG2; Homo sapiens): 55.53 ± 0.24 µM; IC50 (HeLa; Homo sapiens): 75.81 ± 0.73 µM; IC50 ([1]; Homo sapiens, L02, 48 h): 67.18 ± 0.24 µM
